Each block holds one molecule with its values, some of them ahead of it.
Experiments:
[1] = target: Tyrosine-protein kinase Fer (Homo sapiens) (UniProt P16591); assay: Selectivity interaction (Kinase panel (Invitrogen)) EUB0000639a FER; details: at 200 nM
[2] = target: T1, Cyclin-G-associated kinase (Homo sapiens) (UniProt O14976); assay: Selectivity interaction (Kinase panel (DSF assay)) EUB0001559a GAK
T1 sequence (whole entry): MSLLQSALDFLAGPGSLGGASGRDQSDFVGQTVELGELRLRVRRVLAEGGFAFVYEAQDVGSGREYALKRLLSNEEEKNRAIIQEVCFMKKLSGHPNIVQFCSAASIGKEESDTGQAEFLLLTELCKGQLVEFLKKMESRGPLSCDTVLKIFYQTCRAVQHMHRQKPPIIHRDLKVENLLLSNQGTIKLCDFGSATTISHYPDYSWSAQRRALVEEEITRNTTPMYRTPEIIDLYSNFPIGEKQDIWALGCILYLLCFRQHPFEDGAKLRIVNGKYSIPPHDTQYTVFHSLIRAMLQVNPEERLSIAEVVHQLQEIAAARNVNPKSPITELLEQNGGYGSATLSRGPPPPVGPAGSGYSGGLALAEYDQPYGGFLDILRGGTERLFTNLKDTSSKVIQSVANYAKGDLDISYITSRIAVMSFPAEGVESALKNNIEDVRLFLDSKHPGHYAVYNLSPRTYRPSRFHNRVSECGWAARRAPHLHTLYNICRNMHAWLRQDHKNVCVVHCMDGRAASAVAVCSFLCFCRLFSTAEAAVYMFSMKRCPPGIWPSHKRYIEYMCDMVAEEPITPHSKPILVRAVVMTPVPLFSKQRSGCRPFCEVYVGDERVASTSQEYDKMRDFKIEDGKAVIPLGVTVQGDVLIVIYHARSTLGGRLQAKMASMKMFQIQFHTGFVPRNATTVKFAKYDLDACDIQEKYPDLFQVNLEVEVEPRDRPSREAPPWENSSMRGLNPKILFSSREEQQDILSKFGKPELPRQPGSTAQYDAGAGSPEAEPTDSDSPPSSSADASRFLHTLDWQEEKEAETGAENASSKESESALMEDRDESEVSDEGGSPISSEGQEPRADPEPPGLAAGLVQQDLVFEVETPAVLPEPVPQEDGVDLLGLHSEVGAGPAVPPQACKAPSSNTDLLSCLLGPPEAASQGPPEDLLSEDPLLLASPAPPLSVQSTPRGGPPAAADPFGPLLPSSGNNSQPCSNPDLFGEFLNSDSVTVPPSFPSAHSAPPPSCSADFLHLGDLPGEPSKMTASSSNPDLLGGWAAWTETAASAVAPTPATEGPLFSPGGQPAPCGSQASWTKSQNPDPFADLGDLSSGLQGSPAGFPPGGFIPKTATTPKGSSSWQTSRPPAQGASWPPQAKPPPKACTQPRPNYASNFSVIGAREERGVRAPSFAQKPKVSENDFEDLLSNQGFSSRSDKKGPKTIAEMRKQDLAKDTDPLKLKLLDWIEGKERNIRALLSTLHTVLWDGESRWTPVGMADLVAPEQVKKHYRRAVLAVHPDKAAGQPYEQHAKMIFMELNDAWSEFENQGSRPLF

[3] = target: T2, Serine/threonine-protein kinase NLK (Homo sapiens) (UniProt Q9UBE8); assay: Selectivity interaction (Ambit KINOMEscan and KiNATiv profiling in Jurkat cells) EUB0000090b NLK; format: cell-based; details: at 1 µM
T2 sequence (whole entry): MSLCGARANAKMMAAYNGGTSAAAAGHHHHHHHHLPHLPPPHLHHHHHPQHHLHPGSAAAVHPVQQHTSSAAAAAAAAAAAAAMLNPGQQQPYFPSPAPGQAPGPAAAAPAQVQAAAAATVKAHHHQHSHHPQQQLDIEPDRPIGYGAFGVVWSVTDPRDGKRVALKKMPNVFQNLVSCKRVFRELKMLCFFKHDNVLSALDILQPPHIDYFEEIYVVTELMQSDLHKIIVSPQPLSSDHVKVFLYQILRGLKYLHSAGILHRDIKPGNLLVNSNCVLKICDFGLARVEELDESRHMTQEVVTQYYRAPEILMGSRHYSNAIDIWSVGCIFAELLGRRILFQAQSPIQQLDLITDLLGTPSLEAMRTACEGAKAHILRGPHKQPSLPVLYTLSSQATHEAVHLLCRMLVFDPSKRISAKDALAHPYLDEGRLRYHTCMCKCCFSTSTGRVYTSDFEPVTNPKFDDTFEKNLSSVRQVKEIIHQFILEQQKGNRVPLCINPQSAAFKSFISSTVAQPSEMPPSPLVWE

[4] = target: Tyrosine-protein kinase JAK1 (Homo sapiens, UniProt P23458); assay: Selectivity interaction (Kinase panel (KiNativ target engagement assay in Jurkat cells)) EUB0001635a JAK1; format: cell-based; details: Selectivity number of off-targets 0.0, Selectivity number of targets 233.0, Source Knowledge https://www.sciencedirect.com/science/article/pii/S2451945619300674?via%3Dihub, at 1 µM
Chain of Tyrosine-protein kinase JAK1 (P23458 whole entry): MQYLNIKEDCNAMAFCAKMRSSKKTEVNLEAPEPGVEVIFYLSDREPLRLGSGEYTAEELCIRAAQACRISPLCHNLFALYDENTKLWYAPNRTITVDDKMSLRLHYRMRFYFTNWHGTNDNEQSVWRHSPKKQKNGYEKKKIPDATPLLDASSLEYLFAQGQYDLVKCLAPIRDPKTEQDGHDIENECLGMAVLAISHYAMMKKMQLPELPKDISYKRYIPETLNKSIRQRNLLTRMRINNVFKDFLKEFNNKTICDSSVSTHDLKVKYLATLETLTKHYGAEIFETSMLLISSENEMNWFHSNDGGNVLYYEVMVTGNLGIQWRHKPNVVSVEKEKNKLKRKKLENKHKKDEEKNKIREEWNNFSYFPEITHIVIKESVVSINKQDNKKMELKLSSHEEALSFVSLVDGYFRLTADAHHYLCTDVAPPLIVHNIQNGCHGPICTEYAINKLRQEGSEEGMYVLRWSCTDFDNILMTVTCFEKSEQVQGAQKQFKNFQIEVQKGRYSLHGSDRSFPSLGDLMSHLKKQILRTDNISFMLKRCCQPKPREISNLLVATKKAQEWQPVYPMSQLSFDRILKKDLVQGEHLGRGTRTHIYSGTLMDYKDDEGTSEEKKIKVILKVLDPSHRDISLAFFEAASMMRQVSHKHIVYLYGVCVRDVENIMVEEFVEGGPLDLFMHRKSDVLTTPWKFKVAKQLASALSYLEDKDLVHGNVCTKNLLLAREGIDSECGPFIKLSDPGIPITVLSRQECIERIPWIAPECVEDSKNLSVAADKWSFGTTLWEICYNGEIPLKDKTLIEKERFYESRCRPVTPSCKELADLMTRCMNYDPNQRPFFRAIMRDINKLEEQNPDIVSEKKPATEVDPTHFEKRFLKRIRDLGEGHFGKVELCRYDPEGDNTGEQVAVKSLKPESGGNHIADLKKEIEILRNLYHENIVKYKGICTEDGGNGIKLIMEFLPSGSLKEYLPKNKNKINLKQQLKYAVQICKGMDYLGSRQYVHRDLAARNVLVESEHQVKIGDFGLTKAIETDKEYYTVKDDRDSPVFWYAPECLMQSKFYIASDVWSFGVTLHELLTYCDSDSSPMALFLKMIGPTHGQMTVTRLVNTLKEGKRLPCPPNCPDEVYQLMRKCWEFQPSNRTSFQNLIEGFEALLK

[5] = target: Mitogen-activated protein kinase kinase kinase 4 (Homo sapiens) (UniProt Q9Y6R4); assay: Selectivity interaction (Kinase panel (KiNativ target engagement assay in Jurkat cells)) EUB0001635a MAP3K4; format: cell-based; details: Selectivity number of off-targets 0.0, Selectivity number of targets 233.0, Source Knowledge https://www.sciencedirect.com/science/article/pii/S2451945619300674?via%3Dihub, at 1 µM
Chain of Mitogen-activated protein kinase kinase kinase 4 (Homo sapiens) (Q9Y6R4 whole entry): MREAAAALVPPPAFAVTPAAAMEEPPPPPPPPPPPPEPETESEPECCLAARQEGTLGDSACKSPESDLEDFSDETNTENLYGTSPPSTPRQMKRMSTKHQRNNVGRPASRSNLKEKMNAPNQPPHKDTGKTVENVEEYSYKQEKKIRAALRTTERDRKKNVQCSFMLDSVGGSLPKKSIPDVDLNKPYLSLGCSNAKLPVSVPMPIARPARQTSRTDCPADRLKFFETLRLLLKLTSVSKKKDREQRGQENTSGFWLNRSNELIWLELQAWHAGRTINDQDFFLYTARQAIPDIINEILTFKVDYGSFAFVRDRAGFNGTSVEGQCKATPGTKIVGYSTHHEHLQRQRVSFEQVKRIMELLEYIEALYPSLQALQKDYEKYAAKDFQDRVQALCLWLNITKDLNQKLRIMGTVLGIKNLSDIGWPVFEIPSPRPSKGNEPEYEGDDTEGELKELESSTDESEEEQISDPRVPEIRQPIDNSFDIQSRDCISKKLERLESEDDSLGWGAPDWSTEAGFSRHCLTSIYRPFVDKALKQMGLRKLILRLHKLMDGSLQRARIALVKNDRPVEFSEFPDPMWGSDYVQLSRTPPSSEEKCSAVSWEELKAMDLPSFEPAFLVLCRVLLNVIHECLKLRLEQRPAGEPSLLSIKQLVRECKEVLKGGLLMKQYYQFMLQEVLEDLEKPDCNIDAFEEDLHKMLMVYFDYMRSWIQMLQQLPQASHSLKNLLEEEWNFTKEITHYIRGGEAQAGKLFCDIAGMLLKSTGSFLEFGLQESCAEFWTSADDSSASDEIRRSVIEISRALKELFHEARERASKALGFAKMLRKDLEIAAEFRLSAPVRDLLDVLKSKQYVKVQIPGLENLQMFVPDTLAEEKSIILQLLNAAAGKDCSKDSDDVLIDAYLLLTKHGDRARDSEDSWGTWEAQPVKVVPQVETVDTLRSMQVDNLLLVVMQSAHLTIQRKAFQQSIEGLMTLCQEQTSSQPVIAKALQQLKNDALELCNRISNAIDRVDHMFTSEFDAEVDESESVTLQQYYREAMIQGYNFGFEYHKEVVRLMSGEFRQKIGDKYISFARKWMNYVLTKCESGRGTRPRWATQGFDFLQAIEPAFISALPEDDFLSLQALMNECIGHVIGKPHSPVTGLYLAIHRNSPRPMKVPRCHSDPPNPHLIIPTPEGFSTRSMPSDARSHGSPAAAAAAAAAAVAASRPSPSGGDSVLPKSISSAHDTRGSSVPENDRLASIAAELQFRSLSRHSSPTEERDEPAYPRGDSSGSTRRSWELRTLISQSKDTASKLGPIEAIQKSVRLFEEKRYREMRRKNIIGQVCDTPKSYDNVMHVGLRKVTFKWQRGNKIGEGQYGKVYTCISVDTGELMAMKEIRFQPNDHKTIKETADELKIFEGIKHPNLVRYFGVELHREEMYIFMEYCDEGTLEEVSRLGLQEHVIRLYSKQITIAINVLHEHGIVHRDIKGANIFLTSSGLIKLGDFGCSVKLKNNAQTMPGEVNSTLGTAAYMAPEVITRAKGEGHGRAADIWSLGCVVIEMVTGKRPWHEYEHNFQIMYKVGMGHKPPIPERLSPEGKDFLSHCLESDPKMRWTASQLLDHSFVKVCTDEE

Chain of Tyrosine-protein kinase Fer (Homo sapiens) (P16591 whole entry, looked up): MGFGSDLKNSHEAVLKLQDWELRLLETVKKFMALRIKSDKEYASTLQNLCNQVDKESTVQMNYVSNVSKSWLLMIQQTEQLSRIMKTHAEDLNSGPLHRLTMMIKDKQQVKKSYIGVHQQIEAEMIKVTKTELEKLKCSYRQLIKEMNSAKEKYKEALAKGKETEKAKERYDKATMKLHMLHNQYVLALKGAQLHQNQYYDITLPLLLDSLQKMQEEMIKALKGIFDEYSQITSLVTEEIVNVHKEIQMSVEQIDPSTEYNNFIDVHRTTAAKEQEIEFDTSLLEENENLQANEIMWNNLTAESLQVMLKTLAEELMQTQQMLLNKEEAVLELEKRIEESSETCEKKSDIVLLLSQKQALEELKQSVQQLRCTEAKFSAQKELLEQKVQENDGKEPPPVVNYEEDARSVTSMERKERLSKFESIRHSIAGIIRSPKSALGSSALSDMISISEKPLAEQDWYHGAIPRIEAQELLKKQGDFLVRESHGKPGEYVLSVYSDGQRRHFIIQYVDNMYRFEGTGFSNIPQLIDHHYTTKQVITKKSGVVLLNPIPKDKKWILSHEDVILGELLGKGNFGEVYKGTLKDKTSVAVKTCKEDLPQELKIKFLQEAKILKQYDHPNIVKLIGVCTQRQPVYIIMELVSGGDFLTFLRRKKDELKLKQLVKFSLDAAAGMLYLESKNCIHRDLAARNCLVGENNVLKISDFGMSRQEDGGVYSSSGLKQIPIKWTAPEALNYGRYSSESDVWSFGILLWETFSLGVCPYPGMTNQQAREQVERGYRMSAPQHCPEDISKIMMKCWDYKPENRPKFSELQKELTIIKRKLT

% of inhibition [1]: 9.46%
Compound: CC[C@@H]1[C@H](F)C(=O)N[C@@H]1COc1nccc2cc(C(N)=O)c(OC)cc12 [ZIMLOVISERTIB]

dTM [2]: 0.1 K
Compound: CN(C(=O)c1cnn2cccnc12)c1cc2c(cc1N1CCOCC1)C(=O)N(C[C@@H](F)C(C)(C)O)C2

Compound: CN(C)C/C=C/C(=O)Nc1ccc(C(=O)N2CCCC(Nc3ncc(Cl)c(-c4c[nH]c5ccccc45)n3)C2)cc1 (stereo not given)
% of control [3]: 52%

Compound: C=CC(=O)Nc1ccc(C(=O)Nc2[nH]nc3c2CN(C(=O)N[C@H](CN(C)C)c2ccccc2)C3(C)C)cc1
% of engagement [4]: 3.6% | % of engagement [5]: -2.6%

Reference: ChEMBL document CHEMBL5465560, “Selectivity Literature for EUbOPEN Chemogenomic Library” (2024)
